Data as given in publication PMC3747263 (PLoS ONE, 2013).

Key:
[1] = target: LecB (PA-IIL) (Pseudomonas aeruginosa, UniProt Q9HYN5); assay type: binding; conditions: read-out: LecB / KD
[2] = target: T1, BambL (Burkholderia ambifaria, UniProt Q0B4G1); experiment: X-ray crystal structure of complex, […] Å; assay type: binding; conditions: co-crystallised with 5 mM sugar; intra- and intermonomeric sites; reservoir pH 5.0
T1 construct: gene Bamb_5415
T1 sequence (Q0B4G1 1-87 limits assumed): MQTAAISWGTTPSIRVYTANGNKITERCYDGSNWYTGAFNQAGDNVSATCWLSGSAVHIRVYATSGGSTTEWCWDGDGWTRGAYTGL

Chain of LecB (PA-IIL) (Q9HYN5 2-115 limits assumed): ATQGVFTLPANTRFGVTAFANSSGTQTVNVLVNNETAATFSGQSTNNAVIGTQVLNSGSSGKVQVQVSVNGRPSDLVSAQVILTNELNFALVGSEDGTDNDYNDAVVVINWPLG

Compound: CC(=O)N[C@H]1[C@@H](O[C@H]2[C@@H](O)[C@@H](CO)OC(O)[C@@H]2O[C@@H]2O[C@@H](C)[C@@H](O)[C@@H](O)[C@@H]2O)O[C@H](CO)[C@H](O)[C@@H]1O (some centres unmarked) [A tri]
- Kd [1]: 10.3 µM

Compound: CC(=O)N[C@H]1C(O)O[C@H](CO)[C@@H](O)[C@@H]1O[C@@H]1O[C@H](CO)[C@H](O)[C@H](O)[C@H]1O[C@@H]1O[C@@H](C)[C@@H](O)[C@@H](O)[C@@H]1O (some centres unmarked) [H type 1]
- Kd [1]: 1.39 µM

Compound: CC(=O)N[C@H]1C(O)O[C@H](CO)[C@@H](O[C@@H]2O[C@H](CO)[C@H](O)[C@H](O)[C@H]2O[C@@H]2O[C@@H](C)[C@@H](O)[C@@H](O)[C@@H]2O)[C@@H]1O (some centres unmarked) [H type 2]
- Kd [1]: 0.48 µM

Compound: CC(=O)N[C@H]1[C@H](O[C@H]2[C@@H](O)[C@@H](CO)OC(O)[C@@H]2O)O[C@H](CO)[C@@H](O[C@@H]2O[C@H](CO)[C@H](O)[C@H](O)[C@H]2O)[C@@H]1O[C@@H]1O[C@@H](C)[C@@H](O)[C@@H](O)[C@@H]1O (some centres unmarked) [Le^x tetrasaccharide]
- X-ray crystal structure of complex, 1.6 Å [2]: BambL was cocrystallised with the Le^x tetrasaccharide

Compound: CC(=O)N[C@H]1[C@H]([C@H](O)[C@H](O)CO)O[C@@](O[C@H]2[C@@H](O)[C@@H](CO)O[C@@H](O[C@H]3[C@H](O[C@@H]4O[C@@H](C)[C@@H](O)[C@@H](O)[C@@H]4O)[C@@H](CO)OC(O)[C@@H]3NC(C)=O)[C@@H]2O)(C(=O)O)C[C@@H]1O (some centres unmarked) [sLe^a]
- Kd [1]: 0.29 µM
